In the experiment the target is Protein phosphatase 1 catalytic subunit (PPP1CA). The experiment can be described thus: Inhibitory concentration against protein phosphatase 1 (PP1) was determined.
`O=C(O)[C@@H](Cc1ccccc1)N1C(=O)[C@@H]2[C@H](C1=O)[C@H]1CC[C@@H]2O1` [(R)-2-((1S,2R,6S,7R)-3,5-Dioxo-10-oxa-4-aza-tricyclo[5.2.1.0*2,6*]dec-4-yl)-3-phenyl-propionic acid] registered an IC50 above 1 mM.

As for `CC(C)C[C@H](C(=O)O)N1C(=O)[C@@H]2[C@H](C1=O)[C@H]1CC[C@@H]2O1` [(R)-2-((1S,2R,6S,7R)-3,5-Dioxo-10-oxa-4-aza-tricyclo[5.2.1.0*2,6*]dec-4-yl)-4-methyl-pentanoic acid], the IC50 is above 1 mM.

Consider `O=C(O)CC[C@H](C(=O)O)N1C(=O)[C@@H]2[C@H](C1=O)[C@H]1CC[C@@H]2O1` [(R)-2-((1S,2R,6S,7R)-3,5-Dioxo-10-oxa-4-aza-tricyclo[5.2.1.0*2,6*]dec-4-yl)-pentanedioic acid], for which the IC50 was found to be 0.095 mM.

`O=C(O)[C@H](Cc1ccccc1)N1C(=O)[C@@H]2[C@H](C1=O)[C@H]1CC[C@@H]2O1` [(S)-2-((1S,2R,6S,7R)-3,5-Dioxo-10-oxa-4-aza-tricyclo[5.2.1.0*2,6*]dec-4-yl)-3-phenyl-propionic acid]: the 50% inhibitory concentration (IC50) is above 1 mM.

Take `CC(C)C[C@@H](C(=O)O)N1C(=O)[C@@H]2[C@H](C1=O)[C@H]1CC[C@@H]2O1` [(S)-2-((1S,2R,6S,7R)-3,5-Dioxo-10-oxa-4-aza-tricyclo[5.2.1.0*2,6*]dec-4-yl)-4-methyl-pentanoic acid]: the IC50 was above 1 mM.

The values are drawn from BindingDB's records for doi:10.1016/s0960-894x(01)00594-7 (The University of Newcastle, 2001).
